Measured values taken from ChEMBL document CHEMBL3792292, “Development of a potent and selective FLT3 kinase inhibitor by systematic expansion of a non-selective fragment-screening hit” (Bioorg Med Chem Lett, 2016).

Columns and labels:
[1] = biological target: Protein-tyrosine kinase 2-beta (Homo sapiens) (UniProt Q14289); assay: Inhibition of full length human N-terminal GST-tagged PYK2 (1 to 967 residues) expressed in baculovirus expression system using fluorescence labelled Blk/Lyntide as substrate at 50 times IC50 by electrophoretic mobility shift assay relative to control
[2] = biological target: Ribosomal protein S6 kinase beta-1 (Homo sapiens) (UniProt P23443); assay: Inhibition of human N-terminal GST-tagged p70S6K catalytic domain (1 to 421 residues) expressed in baculovirus expression system coexpressing His-tagged PDK1 (1 to 556 residues) using fluorescence labelled S6K2 peptide substrate at 50 times IC50 by electrophoretic mobility shift assay relative to control
[3] = biological target: T1, Tyrosine-protein kinase receptor TYRO3 (Homo sapiens) (UniProt Q06418); assay: Inhibition of human N-terminal GST-tagged TYRO3 cytoplasmic domain (453 to 890 residues) expressed in baculovirus expression system using fluorescence labelled CSKtide as substrate at 50 times IC50 by electrophoretic mobility shift assay relative to control
T1 sequence (whole entry): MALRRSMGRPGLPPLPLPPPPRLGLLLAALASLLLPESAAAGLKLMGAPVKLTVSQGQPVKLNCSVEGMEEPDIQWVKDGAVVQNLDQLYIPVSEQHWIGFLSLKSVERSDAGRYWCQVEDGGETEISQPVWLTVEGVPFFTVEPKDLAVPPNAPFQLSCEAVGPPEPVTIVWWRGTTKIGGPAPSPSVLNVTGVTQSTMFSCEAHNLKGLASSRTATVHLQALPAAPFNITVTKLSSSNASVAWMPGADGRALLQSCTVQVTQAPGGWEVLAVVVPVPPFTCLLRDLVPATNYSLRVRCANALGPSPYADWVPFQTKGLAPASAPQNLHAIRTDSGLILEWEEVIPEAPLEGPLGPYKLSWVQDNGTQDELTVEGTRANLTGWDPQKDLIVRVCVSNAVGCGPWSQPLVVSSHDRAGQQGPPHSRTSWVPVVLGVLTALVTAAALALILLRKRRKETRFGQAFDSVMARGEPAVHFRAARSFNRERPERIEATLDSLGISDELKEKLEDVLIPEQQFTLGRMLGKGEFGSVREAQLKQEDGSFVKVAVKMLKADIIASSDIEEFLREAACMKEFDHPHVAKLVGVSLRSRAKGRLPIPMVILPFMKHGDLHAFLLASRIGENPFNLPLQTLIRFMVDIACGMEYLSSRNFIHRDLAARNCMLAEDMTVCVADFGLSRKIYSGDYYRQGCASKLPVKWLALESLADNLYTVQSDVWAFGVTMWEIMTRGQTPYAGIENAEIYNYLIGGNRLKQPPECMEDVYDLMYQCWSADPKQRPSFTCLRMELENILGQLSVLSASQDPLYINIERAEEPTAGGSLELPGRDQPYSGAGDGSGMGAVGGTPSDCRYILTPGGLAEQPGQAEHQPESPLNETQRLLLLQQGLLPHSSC

[4] = biological target: [Pyruvate dehydrogenase (acetyl-transferring)] kinase isozyme 1, mitochondrial (Homo sapiens) (UniProt Q15118); assay: Inhibition of full length human N-terminal GST-tagged PDK1 (1 to 436 residues) expressed in baculovirus expression system using fluorescence labelled PDHKtide as substrate at 50 times IC50 by electrophoretic mobility shift assay relative to control
[5] = biological target: T2, Lymphokine-activated killer T-cell-originated protein kinase (Homo sapiens) (UniProt Q96KB5); assay: Inhibition of full length human N-terminal GST-tagged PBK (1 to 322 residues) expressed in baculovirus expression system using fluorescence labelled histone H3 peptide substrate at 50 times IC50 by electrophoretic mobility shift assay relative to control
T2 sequence (whole entry): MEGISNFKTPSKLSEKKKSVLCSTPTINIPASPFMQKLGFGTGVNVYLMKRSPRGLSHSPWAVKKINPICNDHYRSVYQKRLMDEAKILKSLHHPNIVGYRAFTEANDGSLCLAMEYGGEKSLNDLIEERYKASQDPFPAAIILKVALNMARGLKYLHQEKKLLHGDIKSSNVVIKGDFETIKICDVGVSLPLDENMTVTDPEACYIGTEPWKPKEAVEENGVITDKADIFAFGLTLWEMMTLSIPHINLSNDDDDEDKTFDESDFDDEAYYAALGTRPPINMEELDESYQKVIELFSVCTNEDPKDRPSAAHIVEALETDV

[6] = biological target: T3, Serine/threonine-protein kinase Nek2 (Homo sapiens) (UniProt P51955); assay: Inhibition of full length human N-terminal His-tagged NEK2 (1 to 445 residues) expressed in baculovirus expression system using fluorescence labelled CDK7 peptide substrate at 50 times IC50 by electrophoretic mobility shift assay relative to control
T3 sequence (whole entry): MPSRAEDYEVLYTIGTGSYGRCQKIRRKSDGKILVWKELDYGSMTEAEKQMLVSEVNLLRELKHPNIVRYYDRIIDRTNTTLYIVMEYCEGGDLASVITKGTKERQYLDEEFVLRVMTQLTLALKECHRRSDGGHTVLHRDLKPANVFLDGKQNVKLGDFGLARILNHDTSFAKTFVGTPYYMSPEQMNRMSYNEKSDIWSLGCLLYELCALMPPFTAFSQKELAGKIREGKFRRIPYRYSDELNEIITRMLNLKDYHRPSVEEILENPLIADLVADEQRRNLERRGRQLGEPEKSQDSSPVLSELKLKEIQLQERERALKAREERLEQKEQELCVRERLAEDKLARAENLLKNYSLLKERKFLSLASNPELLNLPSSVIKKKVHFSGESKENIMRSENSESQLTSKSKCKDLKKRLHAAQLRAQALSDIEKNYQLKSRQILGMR

[7] = biological target: Hepatocyte growth factor receptor (Homo sapiens) (UniProt P08581); assay: Inhibition of human N-terminal GST-tagged MET cytoplasmic domain (956 to 1390 residues) expressed in baculovirus expression system using fluorescence labelled srctide as substrate at 50 times IC50 by electrophoretic mobility shift assay relative to control
Sequence of Hepatocyte growth factor receptor (Homo sapiens) (P08581 whole entry, the tested form may be a part): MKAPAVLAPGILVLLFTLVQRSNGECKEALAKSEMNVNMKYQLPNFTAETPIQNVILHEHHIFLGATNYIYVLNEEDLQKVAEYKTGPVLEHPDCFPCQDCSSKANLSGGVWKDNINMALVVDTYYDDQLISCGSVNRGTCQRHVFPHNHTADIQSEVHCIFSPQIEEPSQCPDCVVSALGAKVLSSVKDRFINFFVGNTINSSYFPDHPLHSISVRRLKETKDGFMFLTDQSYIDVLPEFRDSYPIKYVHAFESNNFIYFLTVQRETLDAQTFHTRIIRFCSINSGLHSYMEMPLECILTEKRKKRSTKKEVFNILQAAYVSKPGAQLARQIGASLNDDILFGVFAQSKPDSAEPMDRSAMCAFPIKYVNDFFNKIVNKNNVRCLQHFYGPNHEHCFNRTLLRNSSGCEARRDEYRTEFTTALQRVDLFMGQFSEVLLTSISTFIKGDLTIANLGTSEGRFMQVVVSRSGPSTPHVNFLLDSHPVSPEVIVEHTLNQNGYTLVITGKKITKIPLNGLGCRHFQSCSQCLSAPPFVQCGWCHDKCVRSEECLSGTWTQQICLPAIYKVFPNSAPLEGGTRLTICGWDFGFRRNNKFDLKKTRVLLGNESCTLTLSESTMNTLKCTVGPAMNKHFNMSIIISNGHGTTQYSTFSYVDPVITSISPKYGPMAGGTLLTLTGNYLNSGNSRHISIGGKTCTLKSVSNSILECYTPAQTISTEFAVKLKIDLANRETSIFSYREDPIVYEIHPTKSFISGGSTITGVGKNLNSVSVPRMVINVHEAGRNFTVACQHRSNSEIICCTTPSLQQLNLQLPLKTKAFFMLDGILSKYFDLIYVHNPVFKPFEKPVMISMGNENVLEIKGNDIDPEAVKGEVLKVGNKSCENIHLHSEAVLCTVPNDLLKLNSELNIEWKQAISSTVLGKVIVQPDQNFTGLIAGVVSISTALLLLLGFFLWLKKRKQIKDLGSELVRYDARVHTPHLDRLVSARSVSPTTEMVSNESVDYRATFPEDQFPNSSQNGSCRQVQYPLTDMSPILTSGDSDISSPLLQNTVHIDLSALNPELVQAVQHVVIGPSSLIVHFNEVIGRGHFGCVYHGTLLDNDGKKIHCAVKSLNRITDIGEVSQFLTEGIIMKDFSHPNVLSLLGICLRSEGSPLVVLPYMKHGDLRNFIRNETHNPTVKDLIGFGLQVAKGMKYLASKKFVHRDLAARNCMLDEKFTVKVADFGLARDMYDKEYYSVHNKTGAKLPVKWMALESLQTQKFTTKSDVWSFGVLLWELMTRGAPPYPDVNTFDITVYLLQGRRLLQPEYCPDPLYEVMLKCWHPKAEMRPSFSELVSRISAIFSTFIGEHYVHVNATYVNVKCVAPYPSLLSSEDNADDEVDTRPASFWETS

Sequence of Protein-tyrosine kinase 2-beta (Homo sapiens) (Q14289 whole entry, looked up, the tested form may be a part): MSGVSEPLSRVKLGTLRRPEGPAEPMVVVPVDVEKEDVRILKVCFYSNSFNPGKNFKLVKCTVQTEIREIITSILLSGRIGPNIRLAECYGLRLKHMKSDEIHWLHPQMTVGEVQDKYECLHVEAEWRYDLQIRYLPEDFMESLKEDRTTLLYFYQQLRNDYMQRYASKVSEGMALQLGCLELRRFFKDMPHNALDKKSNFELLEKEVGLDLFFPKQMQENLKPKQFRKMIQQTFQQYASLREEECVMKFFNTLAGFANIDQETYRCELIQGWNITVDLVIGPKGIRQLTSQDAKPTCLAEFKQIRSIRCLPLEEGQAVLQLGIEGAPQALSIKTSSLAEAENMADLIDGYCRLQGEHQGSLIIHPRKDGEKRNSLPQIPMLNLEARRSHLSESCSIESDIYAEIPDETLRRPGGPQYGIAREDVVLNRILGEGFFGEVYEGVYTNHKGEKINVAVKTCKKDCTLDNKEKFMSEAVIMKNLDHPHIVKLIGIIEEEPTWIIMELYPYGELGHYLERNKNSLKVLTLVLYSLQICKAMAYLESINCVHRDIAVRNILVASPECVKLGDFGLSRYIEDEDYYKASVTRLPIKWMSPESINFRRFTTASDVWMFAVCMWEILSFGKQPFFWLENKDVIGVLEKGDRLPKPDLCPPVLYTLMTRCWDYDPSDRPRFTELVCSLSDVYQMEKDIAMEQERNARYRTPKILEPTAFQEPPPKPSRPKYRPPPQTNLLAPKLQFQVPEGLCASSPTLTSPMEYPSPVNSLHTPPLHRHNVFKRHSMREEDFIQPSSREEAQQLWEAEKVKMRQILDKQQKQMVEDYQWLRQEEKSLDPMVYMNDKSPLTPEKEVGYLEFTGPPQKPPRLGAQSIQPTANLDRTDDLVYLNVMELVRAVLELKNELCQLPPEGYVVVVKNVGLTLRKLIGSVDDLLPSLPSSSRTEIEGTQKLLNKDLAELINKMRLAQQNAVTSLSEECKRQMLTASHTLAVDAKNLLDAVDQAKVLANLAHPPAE
Sequence of Ribosomal protein S6 kinase beta-1 (Homo sapiens) (P23443 whole entry, looked up, the tested form may be a part): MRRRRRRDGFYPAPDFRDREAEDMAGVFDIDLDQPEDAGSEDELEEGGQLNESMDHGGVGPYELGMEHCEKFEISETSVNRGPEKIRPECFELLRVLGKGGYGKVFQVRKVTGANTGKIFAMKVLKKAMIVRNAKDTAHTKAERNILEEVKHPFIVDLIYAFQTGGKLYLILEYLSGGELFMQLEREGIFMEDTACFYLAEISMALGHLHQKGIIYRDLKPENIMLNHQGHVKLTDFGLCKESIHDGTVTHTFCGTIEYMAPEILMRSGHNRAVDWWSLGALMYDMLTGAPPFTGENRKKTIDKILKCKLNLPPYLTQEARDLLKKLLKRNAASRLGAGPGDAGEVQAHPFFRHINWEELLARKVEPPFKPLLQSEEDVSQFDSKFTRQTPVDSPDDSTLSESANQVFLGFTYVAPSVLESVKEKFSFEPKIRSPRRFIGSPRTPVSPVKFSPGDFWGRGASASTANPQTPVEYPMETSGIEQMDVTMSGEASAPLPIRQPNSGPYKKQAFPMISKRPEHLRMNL

Structure (SMILES)	inhibition [1] [%]	inhibition [2] [%]	inhibition [3] [%]	inhibition [4] [%]	inhibition [5] [%]	inhibition [6] [%]	inhibition [7] [%]
O=C(Nc1ccccc1)c1n[nH]c2ccccc12	49.5	47.3	10.6	-2.1	4.5	2.3	4.6
O=C(Nc1ccc(C(=O)N2CCN(c3ccccc3)CC2)cc1)c1n[nH]c2ccccc12	34.9	43	9.3	1.9	-1.9	0.2	-0.6
O=C(Nc1ccc(CN2CCN(c3ccccc3)CC2)cc1)c1n[nH]c2ccccc12	14.2	17.8	3.6	-2.8	-3.1	-2.3	-0.4
